Measured values reported in the supplement of paper PMC10307832.

How the values were obtained:
BI-2536 + Foretinib = compound: CC[C@@H]1C(=O)N(C)c2cnc(Nc3ccc(C(=O)NC4CCN(C)CC4)cc3OC)nc2N1C1CCCC1 [BI-2536] + COc1cc2c(Oc3ccc(NC(=O)C4(C(=O)Nc5ccc(F)cc5)CC4)cc3F)ccnc2cc1OCCCN1CCOCC1 [Foretinib] (partner 0.25 µM); assay: relative viability (nuclei count vs DMSO), 5 days (fraction); higher = more cells survive
Method in brief: (§1)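 Medians of duplicate plates are given as relative viability. That measure is the nuclei count in treated wells divided by the count in vehicle wells. Counts were taken on 4× images of lung cancer cell lines in 1536-well plates, 5 days after pin-tool dosing the day after seeding with one drug alone or a fixed anchor-drug dose plus five library-drug doses (not always all listed) in √10 steps.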

[1] = compound: CC1CC(=O)N(C2=CN=C(N=C2N1C3CCCC3)NC4=C(C=C(C=C4)C(=O)NC5CCN(CC5)C)OC)C [NPK76-II-72-1] + CC1(C)CCC(c2ccc(Cl)cc2)=C(CN2CCN(c3ccc(C(=O)NS(=O)(=O)c4ccc(N[C@H](CCN5CCOCC5)CSc5ccccc5)c(S(=O)(=O)C(F)(F)F)c4)cc3)CC2)C1 [Navitoclax] (partner 0.5 µM); assay: as above
Method in brief: as §1

| Cell Line | relative viability (BI-2536 + Foretinib; first compound 0.01 µM) | relative viability (BI-2536 + Foretinib; first compound 0.03162 µM) | relative viability (BI-2536 + Foretinib; first compound 0.1 µM) | relative viability (BI-2536 + Foretinib; first compound 0.3162 µM) | relative viability (BI-2536 + Foretinib; first compound 1 µM) | relative viability ([1]; first compound 0.01 µM) | relative viability ([1]; first compound 0.03162 µM) | relative viability ([1]; first compound 0.1 µM) | relative viability ([1]; first compound 0.3162 µM) | relative viability ([1]; first compound 1 µM) |
| --- | --- | --- | --- | --- | --- | --- | --- | --- | --- | --- |
| NCI-H2342 | 1.01 | 0.973 | 0.976 | 0.633 | 0.357 | – | – | – | – | – |
| SK-MES-1 | 0.926 | 0.778 | 0.927 | 0.204 | 0.168 | 1.19 | 1.34 | 1.28 | 1.24 | 1.31 |
| HCC-366 | 0.959 | 0.847 | 0.225 | 0.0291 | 0.0206 | 1.09 | 1.11 | 1.07 | 1.13 | 0.978 |
| 201T | 1.1 | 0.896 | 0.612 | 0.184 | 0.212 | 1.18 | 1.18 | 1.23 | 1.2 | 1.19 |
| HCC-827 | 1.03 | 0.958 | 0.86 | 0.254 | 0.234 | 1.01 | 1.06 | 0.978 | 0.993 | 1.12 |
| NCI-H647 | 1.35 | 1.16 | 0.649 | 0.101 | 0.128 | 0.986 | 1.05 | 1.23 | 1.11 | 1.2 |
| NCI-H2023 | 0.864 | 0.914 | 0.671 | 0.0855 | 0.0903 | 0.943 | 0.947 | 0.969 | 0.923 | 1.01 |
| NCI-H520 | 0.678 | 0.632 | 0.242 | 0.184 | 0.218 | 0.927 | 1.05 | 1.01 | 1.04 | 1.03 |
| RERF-LC-KJ | 1 | 0.88 | 0.897 | 0.189 | 0.213 | 0.878 | 0.925 | 1.17 | 0.851 | 1.14 |
| A-427 | 1.02 | 0.919 | 1.08 | 0.166 | 0.148 | 1.01 | 0.941 | 0.92 | 1.05 | 0.96 |
| NCI-H441 | 0.918 | 0.673 | 0.261 | 0.194 | 0.222 | 0.634 | 0.946 | 0.671 | 0.533 | 0.73 |
| NCI-H1703 | – | 0.296 | 0.191 | 0.152 | 0.14 | 0.961 | 1.59 | 1.27 | 1.19 | 1.38 |
| NCI-H1792 | – | – | – | – | – | 0.599 | 0.553 | 0.606 | 0.624 | 0.726 |
| Calu-6 | 0.8 | 0.613 | 0.281 | 0.0815 | 0.0737 | 0.879 | 0.942 | 0.894 | 0.809 | 0.889 |
| SK-LU-1 | 0.839 | 0.778 | 0.291 | 0.213 | 0.197 | 0.747 | 0.996 | 1.31 | 0.168 | 0.838 |
| PC-3 [JPC-3] | 1.06 | 0.914 | 0.753 | 0.17 | 0.187 | 0.742 | 0.806 | 0.735 | 0.672 | 0.848 |
| EMC-BAC-2 | 1.03 | 1.18 | 0.947 | 0.202 | 0.194 | 1.13 | 1.17 | 1.1 | 1.17 | 1.19 |

| Cell Line | relative viability (BI-2536 + Foretinib; first compound 0.01 µM) | relative viability (BI-2536 + Foretinib; first compound 0.03162 µM) | relative viability (BI-2536 + Foretinib; first compound 0.1 µM) | relative viability (BI-2536 + Foretinib; first compound 0.3162 µM) | relative viability (BI-2536 + Foretinib; first compound 1 µM) | relative viability ([1]; first compound 0.01 µM) | relative viability ([1]; first compound 0.03162 µM) | relative viability ([1]; first compound 0.1 µM) | relative viability ([1]; first compound 0.3162 µM) | relative viability ([1]; first compound 1 µM) |
| --- | --- | --- | --- | --- | --- | --- | --- | --- | --- | --- |
| LK-2 | 1.32 | 0.923 | 0.861 | 0.18 | 0.162 | 0.769 | 0.83 | 0.961 | 0.723 | 0.879 |
| NCI-H2126 | 1.43 | 1.28 | 1.05 | 0.309 | 0.27 | 0.82 | 0.857 | 0.874 | 0.799 | 0.881 |
| NCI-H3122 | 0.969 | 0.916 | 0.488 | 0.122 | 0.118 | 1.01 | 0.988 | 1 | 1.05 | 1.02 |
| NCI-H1975 | 0.942 | 0.85 | 0.508 | 0.148 | 0.114 | 0.956 | 1.05 | 1.04 | 0.993 | 1.26 |
| NCI-H1944 | 0.822 | 1.09 | 0.907 | 0.134 | 0.178 | 0.997 | 1.02 | 1.05 | 0.971 | 1.06 |
| LU99A | 0.716 | 0.812 | 0.329 | 0.222 | 0.175 | 0.804 | 0.766 | 0.785 | 0.889 | 0.692 |
| SW 1573 | 0.878 | 0.91 | 0.936 | 0.196 | 0.158 | 1.03 | 0.973 | 0.812 | 0.948 | 0.988 |
| NCI-H2347 | 1.07 | 0.742 | 0.933 | 0.311 | 0.292 | 0.761 | 0.698 | 0.728 | 0.789 | 0.868 |
| NCI-H2009 | 1.18 | 0.94 | 0.547 | 0.265 | 0.279 | 1.11 | 1.28 | 1.1 | 1.14 | 1.17 |
| HCC-15 | 0.854 | 0.648 | 0.361 | 0.137 | 0.143 | 0.692 | 0.739 | 0.662 | 0.686 | 0.804 |
| HCC-44 | – | – | – | – | – | 0.997 | 0.969 | 0.915 | 0.919 | 1.11 |
| COR-L23 | 1.04 | 1.04 | 0.453 | 0.128 | 0.0906 | 0.823 | 0.969 | 0.92 | 0.995 | 1.03 |
| HCC-78 | 0.554 | 0.505 | 0.534 | 0.402 | 0.226 | – | 0.846 | 0.719 | – | 0.732 |
| NCI-H1299 | 1.15 | 1.09 | 0.773 | 0.308 | 0.242 | 1.04 | 1.05 | 1.01 | 1.03 | 1.04 |
| NCI-H727 | 0.818 | 0.888 | 0.711 | 0.515 | 0.371 | 0.372 | 0.397 | 0.572 | 0.494 | 0.652 |
| NCI-H2087 | 1.03 | 1.17 | 0.476 | 0.133 | 0.124 | 0.972 | 1.02 | 0.997 | 0.919 | 1.06 |
| BEN | 0.564 | 0.818 | 0.361 | 0.243 | 0.248 | 0.0828 | 0.0731 | 0.0563 | 0.0637 | 0.063 |
